Reference: article PMC12314576, “The Actin‐Binding Prolyl‐Isomerase Par17 Sustains Its Substrate Selectivity by Interdomain Allostery” (Proteins, 2025)
Starred links: 1 amine or outer side, 2 acyl side, 3 side chain; linkers in the order of their positions; H or OH if unused. Residues, ends and D or L forms follow the SMILES beside them. *: point of attachment. pNA = O=[N+]([O-])c1ccc(N*)cc1; Suc = O=C(CCC(=O)[*:2])[*:1]

Assays:
Par14 (Par17Δ1-25) = target: T1, Par14 (Par17Δ1-25) (Homo sapiens, UniProt Q9Y237); experiment: Protease-coupled isomerase assay (PPIase assay) with Par14; format: biochemical; settings: α-chymotrypsin 35 μM, PBS pH 6.8, 10°C, substrate 75 μM, PPIase 2 μM, absorbance 390 nm; mean ± SD
T1 construct: Comparison of spectra of full‐length parvulin proteins and PPIase domain; GST-His6 (PreScission site) (N, cleaved yes); made in house; host or cells: E. coli BL21 (DE3) T1r
T1 sequence (Q9Y237 whole entry, stated change not applied, the tested form may be a part): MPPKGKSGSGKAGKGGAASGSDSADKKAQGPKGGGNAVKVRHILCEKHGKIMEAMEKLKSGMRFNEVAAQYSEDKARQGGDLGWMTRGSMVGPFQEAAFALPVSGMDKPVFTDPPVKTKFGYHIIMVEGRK
Experimental: (§1) To determine the catalytic efficiency and substrate specificity of Par14 and Par17, we performed a protease‐coupled assay. In this assay, the trans form of a para‐nitroaniline (pNA) tagged model substrate is cleaved by chymotrypsin, and the resulting change in absorption at 390 nm due to free pNA is measured. When the model substrate is added to the protease‐containing buffer, all trans‐Xaa‐Pro isomers are immediately cleaved by chymotrypsin. Therefore, the extent of the first signal burst observed in the absorption spectrum correlates with the amount of trans isomers of the model substrate formed during the experimental dead time. The remaining cis‐Xaa substrates now start to isomerize by thermal (in the absence of PPIase) or catalytic reaction (in the presence of PPIase). The newly formed trans‐Xaa substrates are immediately cleaved, and isomerization can thus be monitored over time (Figure 2). Eighteen different substrate peptides with varying amino acids at the Xaa position (Suc‐Ala‐Xaa‐Pro‐Phe‐pNa) were measured to determine the isomerase activity and substrate selectivity of Par14 (Par17Δ1–25), Par17, and the catalytic domain (Par17Δ1–60) (Table S1). The catalytic efficiency is obtained from the observed isomerization curves by calculating the difference between the rate constant in the presence of enzyme and the rate constant obtained from thermal isomerization.
(§2) We determined the isomerase activity using the PPIase assay described by. The lyophilized peptides were dissolved in an adequate volume of 0.5 mM‐LiCl/TFE buffer to obtain a 15 mM stock solution. To achieve a stable cis/trans ratio the mixture was incubated overnight at 4°C. The next day a stock solution of 350 μM α‐chymotrypsin in PBS was incubated on ice for at least 20 min. For measurements without PPIase PBS buffer (pH 6.8) was mixed with α‐chymotrypsin to a final concentration of 35 μM in 1 mL. A baseline was recorded for 5 min (Cary 100Bio UV/Vis spectrophotometer, Varian/Agilent, Santa Clara, US, λ: 390 nm, bandwidth: 1.0 nm, average time between measurements: 0.5 s, temperature: 10°C). After 5 min the substrate peptide was added to a final concentration of 75 μM in 1 mL [59]. The solution was mixed by inverting the cuvette three times and the reaction was recorded for 15 min. Measurements in the presence of PPIase were performed in the same way, except that before the baseline measurement, the appropriate isomerase was added in a final concentration of 2 μM in 1 mL in addition to PBS and α‐chymotrypsin.
(§3) For the data analysis, a mean value of the baseline was subtracted (average of the first 200 data points). The measured values were normalized according to the respective maximum of the measurement. To determine the rate constant, the program graph pad was used, and non‐linear curve fitting was applied for each measurement (exponential, one‐phase association). (1) Y=Y0+Plateau−Y0∙1−e^−K∙x
(§4) where x is the time (min), Y is the absorbance, Y 0 is the absorbance when x = 0, Plateau is the Y value at infinite times, K is the rate constant (min^−1).
(§5) The K cat/K M value was calculated according to Equation (2): (2) kcat/KM=kobs−ktherm/PPIase where k cat/K M is the catalytic efficiency (M^−1 s^−1), k obs, rate constant of the observed reaction (s^−1), k therm is the rate constant of the thermic reaction (s^−1), and [PPIase] is the concentration of PPIase used in the assay (M).
(§6) The obtained data are fitted to Equation (2) using a pseudo first‐order assumption. This is the case, if k obs values behave linearly with rising PPIase concentrations.

[1] = target: T2, PPIase domain (Par17Δ1-60) (Homo sapiens, UniProt Q9Y237); experiment: Protease-coupled isomerase assay (PPIase assay) with the catalytic domain; format: biochemical; settings: α-chymotrypsin 35 μM, PBS pH 6.8, 10°C, substrate 75 μM, PPIase 2 μM, absorbance 390 nm; mean ± SD
T2 construct: GST-His6 (PreScission site) (N, cleaved yes); made in house; host or cells: E. coli BL21 (DE3) T1r
T2 sequence (Q9Y237 36-131, stated change not applied): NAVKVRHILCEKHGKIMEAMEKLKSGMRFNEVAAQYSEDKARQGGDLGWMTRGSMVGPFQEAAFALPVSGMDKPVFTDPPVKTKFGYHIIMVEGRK
Experimental: as §1, §2, §3, §4, §5, §6

Par17 [2] = target: T3, Par17 (Homo sapiens, UniProt Q9Y237); experiment: Protease-coupled isomerase assay (PPIase assay) with Par17; format: biochemical; settings: for k = kobserved - kthermic, Par17: α-chymotrypsin 35 μM, PBS pH 6.8, 10°C, substrate 75 μM, PPIase 2 μM, absorbance 390 nm, mean ± SD
T3 construct: full‐length Par17 and the N‐terminus of Par17; GST-His6 (PreScission site) (N, cleaved yes); Gly-Pro remnant of the PreScission site (Gly stands at position 1 in place of Met1); made in house; host or cells: E. coli BL21 (DE3) T1r
T3 sequence (Q9Y237 1-156 isoform Q9Y237-2): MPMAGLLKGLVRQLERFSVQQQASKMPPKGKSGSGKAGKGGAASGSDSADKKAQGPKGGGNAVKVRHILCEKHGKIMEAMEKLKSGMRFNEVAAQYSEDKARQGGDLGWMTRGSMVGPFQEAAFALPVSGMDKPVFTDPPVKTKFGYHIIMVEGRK
Experimental: as §1, §2, §3, §4, §5, §6

Par17 [3] = target: T3, Par17; experiment: NMR titration of substrate peptides to 15N-labeled full-length Par17; format: binding; settings: 300 μM Par17, KPi pH 6.7, 20°C
Experimental: The amide signals were assigned and combined chemical shift changes between the signals of free and substrate‐bound isomers were calculated.
For NMR measurements, purified and concentrated proteins in salt‐free buffers were mixed with 10% D2O and 1 μL DSS standard. Spectra were measured on an ultra shield 700‐NMR (Bruker, Billerica, US) with a triple resonance cryoprobe (700 MHz). For recording and processing of data, the software Topspin 3.5 was used. Analysis of spectra was carried out using Cara analysis software 2.3.1 (Rochus L.J. Keller) and/or CcpNmr Analysis 2.3.1 (Department of Molecular and Cell Biology, University of Leicester, UK).
Titration of substrate peptides to ^ 15 N‐labeled full‐length Par17 and the N‐terminus of Par17: The following substrate peptides were diluted in salt‐free 50 mM KPi buffer pH 6.7 to a concentration of 15 mM (Suc: Succinyl, pNA: para‐Nitroanilin):
They were added stepwise to 200 μL of the labeled parvulins (300 μM in 50 mM KPi buffer pH 6.7). Spectra were recorded with the pulse program Best‐TROSY at 20°C. Combined chemical shifts were calculated as described. Microscopic dissociation constant K D was fitted with the following equation (assuming a 1:1 binding model): (4) ∆δ=∆δmax·P+x+KD−P+x+KD^2−4·x·P/2·P
where ∆δmax is the amplitude, P is the protein concentration, X is the concentration of the peptide.
Differences in chemical shift changes could be measured up to 0.001 ppm (error in peak picking). Changes were interpreted as significant if Δ > 0.004 ppm and when appearing consecutively in a linear sequence element.
The microscopic K D describes the binding affinity of the ligand to a single side of an amino acid.

Row | SMILES | k = kobserved - kthermic, Par14 (Par17Δ1-25) (Par14 (Par17Δ1-25)) [min⁻¹] | k = kobserved - kthermic, PPIase domain (Par17Δ1-60) [1] [min⁻¹] | k = kobserved - kthermic, Par17 (Par17 [2]) [min⁻¹] | Combined chemical shift perturbation of full length Par17, 115M (Par17 [3]; peptide 0,2 mM) | Combined chemical shift perturbation of full length Par17, 119F (Par17 [3]; peptide 0,2 mM) | Combined chemical shift perturbation of full length Par17, 115M (Par17 [3]; peptide 1 mM) | Combined chemical shift perturbation of full length Par17, 116V (Par17 [3]; peptide 1 mM) | Combined chemical shift perturbation of full length Par17, 119F (Par17 [3]; peptide 1 mM) | Combined chemical shift perturbation of full length Par17, 115M (Par17 [3]; peptide 2 mM) | Combined chemical shift perturbation of full length Par17, 116V (Par17 [3]; peptide 2 mM) | Combined chemical shift perturbation of full length Par17, 119F (Par17 [3]; peptide 2 mM) | Combined chemical shift perturbation of full length Par17, 115M (Par17 [3]; peptide 3 mM) | Combined chemical shift perturbation of full length Par17, 116V (Par17 [3]; peptide 3 mM) | Combined chemical shift perturbation of full length Par17, 119F (Par17 [3]; peptide 3 mM) | Combined chemical shift perturbation of full length Par17, 115M (Par17 [3]; peptide 4 mM) | Combined chemical shift perturbation of full length Par17, 119F (Par17 [3]; peptide 4 mM) | further results
1 | C[C@H](NC(=O)CCC(=O)O)C(=O)N[C@@H](CCCNC(=N)N)C(=O)N1CCC[C@H]1C(=O)N[C@@H](Cc1ccccc1)C(=O)Nc1ccc([N+](=O)[O-])cc1 [Arg, Suc‐Ala‐Arg‐Pro‐Phe‐pNa] (Suc-ARPF-pNA) | 0.582 ± 0.094 | 0.683 ± 0.064 | 0.470 ± 0.037 | 0,0060079 ppm | 0,00418543 ppm | 0,0143348 ppm | 0,13037308 ppm | 0,01835824 ppm | 0,02655282 ppm | 0,18551846 ppm | 0,03376697 ppm | 0,03809928 ppm | 0,23776807 ppm | 0,04577626 ppm | 0,0454705 ppm | 0,05474353 ppm | k cat/K M of Par17, times higher than for Leu‐Pro, Gln‐Pro or His‐Pro peptides (Par17 [2]; ratio of k cat/K M values): approximately 10 times; Combined chemical shift perturbation of full length Par17, 115M (Par17 [3]; peptide 0,4 mM): 0,00801333 ppm; Combined chemical shift perturbation of full length Par17, 116V (Par17 [3]; peptide 0,4 mM): 0,06817833 ppm; Combined chemical shift perturbation of full length Par17, 119F (Par17 [3]; peptide 0,4 mM): 0,00841748 ppm; Combined chemical shift perturbation of full length Par17, 115M (Par17 [3]; peptide 5 mM): 0,0546769 ppm; Combined chemical shift perturbation of full length Par17, 119F (Par17 [3]; peptide 5 mM): 0,06351885 ppm
2 | C[C@H](NC(=O)CCC(=O)O)C(=O)N[C@@H](CCC(=O)O)C(=O)N1CCC[C@H]1C(=O)N[C@@H](Cc1ccccc1)C(=O)Nc1ccc([N+](=O)[O-])cc1 [Glu, Suc–Ala–Glu–Pro–Phe–pNa] (Suc-AEPF-pNA) | 0.267 ± 0.011 | 0.114 ± 0.074 | <0.01 ± 0.029 | 0,01409 ppm | 0,02147 ppm | 0,06465 ppm | 0,12599 ppm | 0,0896 ppm | 0,10754 ppm | 0,21191 ppm | 0,14351 ppm | 0,13595 ppm | 0,27245 ppm | 0,18213 ppm | 0,16135 ppm | 0,22445 ppm | Combined chemical shift perturbation of full length Par17, 113G (Par17 [3]; peptide 0,2 mM): 0,02117 ppm; Combined chemical shift perturbation of full length Par17, 116V (Par17 [3]; peptide 0,2 mM): 0,03056 ppm; Combined chemical shift perturbation of full length Par17, 113G (Par17 [3]; peptide 1 mM): 0,08535 ppm; Combined chemical shift perturbation of full length Par17, 113G (Par17 [3]; peptide 2 mM): 0,14414 ppm; Combined chemical shift perturbation of full length Par17, 113G (Par17 [3]; peptide 3 mM): 0,17998 ppm; Combined chemical shift perturbation of full length Par17, 113G (Par17 [3]; peptide 4 mM): 0,21636 ppm; Combined chemical shift perturbation of full length Par17, 116V (Par17 [3]; peptide 4 mM): 0,32999 ppm
